According to patent US20230049231A1 (priority 2019, published 2023):
pIC50: −log10 of the molar value.

Legend:
Kv1.3 potassium channel = target: T1, Kv1.3 potassium channel (Homo sapiens, UniProt P22001); experiment: Kv1.3 potassium channel blocker activity, automated whole-cell patch clamp (Patchliner); assay type: cell-based
T1 construct: expressed in transfected cells
Procedure, shortened: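 IC50 came from Hill-equation fits of peak and AUC currents from the final pulse at each concentration, normalized to compound-free control. Compounds applied consecutively at 30 nM to 100 μM (up to 0.3% DMSO) to Kv1.3-expressing CHO-K1 cells, P/4 leak subtraction. Pulses were +40 mV, 100 ms, from −90 mV holding, at 0.1 Hz on Patchliner.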

hERG channel = target: T2, hERG channel (Homo sapiens, UniProt Q12809); experiment: hERG electrophysiology, automated whole-cell patch clamp (Patchliner); assay type: cell-based
T2 construct: expressed in transfected cells
Procedure, shortened: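 Automated whole-cell patch clamp on CHO-K1 cells stably expressing hERG; 30 nM–100 μM applied cumulatively to the same cell, ≤0.3% DMSO. Pulses: −80 mV holding, +20 mV for 300 ms, −50 mV for 300 ms tail, 0.3 Hz, 70 per concentration. Last-pulse AUC and peak, normalized to control, were fitted to a Hill equation for IC50.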

[1] = CHO-K1 cells stably expressing Kv1.3, 100 ms pulses from -90 mV to +40 mV, 0.1 Hz
[2] = CHO-K1 cells stably expressing hERG, +20 mV 300 ms, -50 mV 300 ms tail current, 0.3 Hz
[3] = Kv1.3 potassium channel, whole-cell patch clamp
[4] = hERG channel, whole-cell patch clamp

T1 sequence (P22001 whole entry): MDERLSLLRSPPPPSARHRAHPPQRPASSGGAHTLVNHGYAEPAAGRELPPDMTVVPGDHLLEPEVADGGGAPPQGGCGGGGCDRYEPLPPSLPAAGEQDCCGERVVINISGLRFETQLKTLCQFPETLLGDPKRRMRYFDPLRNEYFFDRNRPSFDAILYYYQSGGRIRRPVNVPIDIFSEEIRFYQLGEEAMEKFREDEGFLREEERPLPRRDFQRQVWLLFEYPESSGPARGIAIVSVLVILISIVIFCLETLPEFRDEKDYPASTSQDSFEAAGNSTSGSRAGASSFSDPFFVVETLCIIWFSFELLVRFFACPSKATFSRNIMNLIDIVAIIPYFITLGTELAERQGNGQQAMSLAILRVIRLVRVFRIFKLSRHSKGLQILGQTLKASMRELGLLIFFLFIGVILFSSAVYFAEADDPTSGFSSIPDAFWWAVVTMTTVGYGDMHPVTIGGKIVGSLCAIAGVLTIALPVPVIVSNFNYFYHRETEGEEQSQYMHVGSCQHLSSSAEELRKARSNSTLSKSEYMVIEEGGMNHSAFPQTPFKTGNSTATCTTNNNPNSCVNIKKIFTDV
T2 sequence (Q12809 whole entry): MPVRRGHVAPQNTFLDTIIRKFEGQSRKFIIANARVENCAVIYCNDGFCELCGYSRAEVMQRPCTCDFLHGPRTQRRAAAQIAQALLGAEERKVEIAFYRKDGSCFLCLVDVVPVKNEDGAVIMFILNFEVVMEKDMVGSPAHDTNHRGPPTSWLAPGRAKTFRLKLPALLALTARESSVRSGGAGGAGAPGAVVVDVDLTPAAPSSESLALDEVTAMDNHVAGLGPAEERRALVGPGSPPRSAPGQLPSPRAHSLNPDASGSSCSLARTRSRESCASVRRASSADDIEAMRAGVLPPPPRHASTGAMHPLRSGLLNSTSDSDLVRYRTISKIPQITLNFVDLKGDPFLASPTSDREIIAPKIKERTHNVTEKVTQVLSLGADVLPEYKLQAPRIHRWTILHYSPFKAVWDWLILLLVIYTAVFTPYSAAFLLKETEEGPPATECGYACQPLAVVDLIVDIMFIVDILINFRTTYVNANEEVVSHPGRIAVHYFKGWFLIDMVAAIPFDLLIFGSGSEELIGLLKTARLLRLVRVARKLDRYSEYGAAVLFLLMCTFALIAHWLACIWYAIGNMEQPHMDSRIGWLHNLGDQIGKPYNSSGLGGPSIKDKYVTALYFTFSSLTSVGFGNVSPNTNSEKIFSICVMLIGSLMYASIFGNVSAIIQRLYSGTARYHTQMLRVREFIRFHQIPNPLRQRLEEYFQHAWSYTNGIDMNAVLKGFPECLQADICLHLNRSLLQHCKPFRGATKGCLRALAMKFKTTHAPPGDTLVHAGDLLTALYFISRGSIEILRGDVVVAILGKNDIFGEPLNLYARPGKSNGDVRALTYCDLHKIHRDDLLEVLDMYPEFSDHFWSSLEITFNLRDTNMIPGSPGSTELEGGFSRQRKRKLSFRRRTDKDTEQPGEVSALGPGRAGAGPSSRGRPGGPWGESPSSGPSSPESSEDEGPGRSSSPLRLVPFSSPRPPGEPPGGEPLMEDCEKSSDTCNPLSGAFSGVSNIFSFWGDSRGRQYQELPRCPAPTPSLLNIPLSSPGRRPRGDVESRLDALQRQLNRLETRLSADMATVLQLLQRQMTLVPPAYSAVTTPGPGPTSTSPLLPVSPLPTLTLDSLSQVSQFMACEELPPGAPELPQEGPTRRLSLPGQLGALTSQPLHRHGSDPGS

| Compound | pIC50 (Kv1.3 potassium channel; [1]) | pIC50 (hERG channel; [2]) | pIC50 (Kv1.3 potassium channel; [3]) | pIC50 (hERG channel; [4]) |
| --- | --- | --- | --- | --- |
| O=C([C@H](O)CO)N1CC(=O)N2C[C@@H](c3c(O)ccc(Cl)c3Cl)C[C@H]2C1 [Compound 42, (7R,8aS)-7-(2,3-dichloro-6-hydroxyphenyl)-2-((R)-2,3-dihydroxypropanoyl) hexahydropyrrolo[1,2-a]pyrazin-4(1H)-one] | > 6.00 | < 4.52 | – | – |
| COC[C@H](O)C(=O)N1CC(=O)N2CC[C@@H](c3c(O)ccc(Cl)c3Cl)C[C@H]2C1 [Compound 44, (8R,9aS)-8-(2,3-dichloro-6-hydroxyphenyl)-2-[(2S)-2-hydroxy-3-methoxypropanoyl]-hexahydro-1H-pyrido[1,2-a]pyrazin-4-one] | > 6.00 | < 4.52 | – | – |
| C[C@@H](CO)C(=O)N1CC(=O)N2CC[C@@H](c3c(O)ccc(Cl)c3Cl)C[C@H]2C1 [Compound 45, (8R,9aS)-8-(2,3-dichloro-6-hydroxyphenyl)-2-((S)-3-hydroxy-2-methylpropanoyl)octahydro-4H-pyrido[1,2-a]pyrazin-4-one] | > 6.00 | < 4.52 | – | – |
| C[C@H]1C(=O)N2CC[C@@H](c3c(O)ccc(Cl)c3Cl)C[C@H]2CN1C(=O)CO [Compound 46, (3S,8R,9aS)-8-(2,3-dichloro-6-hydroxyphenyl)-2-(2-hydroxyacetyl)-3-methyloctahydro-4H-pyrido[1,2-a]pyrazin-4-one] | > 6.00 | < 4.52 | – | – |
| O=C(N1CC(O)C1)N1CC(=O)N2C[C@@H](c3c(O)ccc(Cl)c3Cl)C[C@H]2C1 [Compound 47, (7R,8aS)-7-(2,3-dichloro-6-hydroxypheny1)-2-(3-hydroxyazetidine-1-carbonyl)-hexahydropyrrolo[1,2-a]pyrazin-4-one] | > 6.00 | < 4.52 | – | – |
| C[C@H](O)C(=O)N1CC(=O)N2CC[C@@H](c3c(O)ccc(Cl)c3Cl)C[C@H]2C1 [Compound 49, (8R,9aS)-8-(2,3-dichloro-6-hydroxyphenyl)-2-[(2S)-2-hydroxypropanoyl]-hexahydro-1H-pyrido[1,2-a]pyrazin-4-one] | > 6.00 | < 4.52 | – | – |
| O=C1[C@@H](CO)OC[C@@H]2C[C@H](c3c(O)ccc(Cl)c3Cl)CN12 [Compound 50, (3R,7R,8aS)-7-(2,3-dichloro-6-hydroxyphenyl)-3-(hydroxymethyl)-hexahydropyrrolo[2,1-c][1,4]oxazin-4-one] | > 6.00 | < 4.52 | – | – |
| C[C@H](CO)C(=O)N1CC(=O)N2CC[C@@H](c3c(O)ccc(Cl)c3Cl)C[C@H]2C1 [Compound 54, (8R,9aS)-8-(2,3-dichloro-6-hydroxyphenyl)-2-((R)-3-hydroxy-2-methylpropanoyl)octahydro-4H-pyrido[1,2-a]pyrazin-4-one] | > 6.00 | < 4.52 | – | – |
| NC(=O)N1CC(=O)N2C[C@@H](c3c(O)ccc(Cl)c3Cl)C[C@H]2C1 [Compound 55, (7R,8aS)-7-(2,3-dichloro-6-hydroxyphenyl)-4-oxo-hexahydropyrrolo[1,2-a]pyrazine-2-carboxamide] | > 6.00 | < 4.52 | – | – |
| O=C1[C@@H](CO)NC[C@@H]2C[C@H](c3c(O)ccc(Cl)c3Cl)CCN12 [Compound 57, (3R,8R,9aS)-8-(2,3-dichloro-6-hydroxyphenyl)-3-(hydroxymethyl)-octahydropyrido[1,2-a]pyrazin-4-one] | > 6.00 | < 4.52 | – | – |
| C[C@H](O)CC(=O)N1CC(=O)N2C[C@@H](c3c(O)ccc(Cl)c3Cl)C[C@H]2C1 [Compound 59, (7R,8aS)-7-(2,3-dichloro-6-hydroxyphenyl)-2-[(3S)-3-hydroxybutanoyl]-hexahydropyrrolo[1,2-a]pyrazin-4-one] | > 6.00 | < 4.52 | – | – |
| O=C(CO)N1CC(=O)N2CC[C@@H](c3c(O)ccc(Cl)c3Cl)C[C@H]2C1 [Compound 63, (8R,9aS)-8-(2,3-dichloro-6-hydroxyphenyl)-2-(2-hydroxyacetyl)-hexahydro-1H-pyrido[1,2-a]pyrazin-4-one] | – | – | > 6.00 | > 4.52 |
| O=C([C@@H](O)CO)N1CC(=O)N2CC[C@H](c3c(O)ccc(Cl)c3Cl)C[C@@H]2C1 [Compound 64, (8S,9aR)-8-(2,3-dichloro-6-hydroxyphenyl)-2-[(2S)-2,3-dihydroxy-propanoyl]-hexahydro-1H-pyrido[1,2-a]pyrazin-4-one] | – | – | > 6.00 | < 4.52 |
| O=C(C(CO)CO)N1CC(=O)N2C[C@@H](c3c(O)ccc(Cl)c3Cl)C[C@H]2C1 [Compound 65, (7R,8aS)-7-(2,3-dichloro-6-hydroxyphenyl)-2-[3-hydroxy-2-(hydroxymethyl)propanoyl]-hexa-hydropyrrolo[1,2-a]pyrazin-4-one] | – | – | > 6.00 | < 4.52 |
| CCO[C@H](CO)C(=O)N1CC(=O)N2C[C@@H](c3c(O)ccc(Cl)c3Cl)C[C@H]2C1 [Compound 66, (7R,8aS)-7-(2,3-dichloro-6-hydroxyphenyl)-2-[(2R)-2-ethoxy-3-hydroxypropanoyl]-hexahydropyrrolo[1,2-a]pyrazin-4-one] | – | – | > 6.00 | < 4.52 |
| O=C1CN(C(=O)C2(CO)CC2)C[C@@H]2C[C@H](c3c(O)ccc(Cl)c3Cl)CN12 [Compound 67, (7R,8aS)-7-(2,3-dichloro-6-hydroxyphenyl)-2-[1-(hydroxymethyl)cyclopro-panecarbonyl]-hexahydropyrrolo[1,2-a]pyrazin-4-one] | – | – | > 6.00 | < 4.52 |
| O=C(CC(F)F)N1CC(=O)N2C[C@@H](c3c(O)ccc(Cl)c3Cl)C[C@H]2C1 [Compound 68, (7R,8aS)-7-(2,3-dichloro-6-hydroxyphenyl)-2-(3,3-difluoropropanoyl)-hexahydropyrrolo [1,2-a]pyrazin-4-one] | – | – | > 6.00 | < 4.52 |
| CC[C@@H](O)CC(=O)N1CC(=O)N2C[C@@H](c3c(O)ccc(Cl)c3Cl)C[C@H]2C1 [Compound 69, (7R,8aS)-7-(2,3-dichloro-6-hydroxyphenyl)-2-[(3R)-3-hydroxypentanoyl]-hexahydropyrrolo [1,2-a]pyrazin-4-one] | – | – | > 6.00 | < 4.52 |
| CC[C@H](O)CC(=O)N1CC(=O)N2C[C@@H](c3c(O)ccc(Cl)c3Cl)C[C@H]2C1 [Compound 70, (7R,8aS)-7-(2,3-dichloro-6-hydroxyphenyl)-2-[(3S)-3-hydroxypentanoyl]-hexahydropyrrolo [1,2-a]pyrazin-4-one] | – | – | > 6.00 | > 4.52 |
| O=C(C[C@H](O)C1CC1)N1CC(=O)N2C[C@@H](c3c(O)ccc(Cl)c3Cl)C[C@H]2C1 [Compound 71, (7R,8aS)-2-[(3S)-3-cyclopropyl-3-hydroxypropanoyl]-7-(2,3-dichloro-6-hydroxyphenyl)-hexahydropyrrolo [1,2-a]pyrazin-4-one] | – | – | > 6.00 | > 4.52 |
| O=C(C[C@@H](O)C1CC1)N1CC(=O)N2C[C@@H](c3c(O)ccc(Cl)c3Cl)C[C@H]2C1 [Compound 72, (7R,8aS)-2-[(3R)-3-cyclopropyl-3-hydroxypropanoyl]-7-(2,3-dichloro-6-hydroxyphenyl)-hexahydropyrrolo [1,2-a]pyrazin-4-one] | – | – | > 6.00 | > 4.52 |
| O=C(CC(O)C(F)F)N1CC(=O)N2C[C@@H](c3c(O)ccc(Cl)c3Cl)C[C@H]2C1 (stereo partly drawn) [Compound 73, (7R,8aS)-7-(2,3-dichloro-6-hydroxyphenyl)-2-(4,4-difluoro-3-hydroxybutanoyl)-hexahydropyrrolo [1,2-a]pyrazin-4-one] | – | – | > 6.00 | < 4.52 |
| O=C([C@@H]1OCC[C@@H]1O)N1CC(=O)N2C[C@@H](c3c(O)ccc(Cl)c3Cl)C[C@H]2C1 [Compound 74, (7R,8aS)-7-(2,3-dichloro-6-hydroxyphenyl)-2-[(2R,3S)-3-hydroxyoxolane-2-carbonyl]-hexahydropyrrolo [1,2-a]pyrazin-4-one] | – | – | > 6.00 | < 4.52 |
| O=C(C[C@H](O)C(F)F)N1CC(=O)N2C[C@@H](c3c(O)ccc(Cl)c3Cl)C[C@H]2C1 [Compound 75, (7R,8aS)-7-(2,3-dichloro-6-hydroxyphenyl)-2-[(3S)-4,4-difluoro-3-hydroxybutanoyl] hexahydropyrrolo [1,2-a]pyrazin-4-one] | – | – | > 6.00 | < 4.52 |
| O=C(C[C@@H](O)C(F)F)N1CC(=O)N2C[C@@H](c3c(O)ccc(Cl)c3Cl)C[C@H]2C1 [Compound 76, (7R,8aS)-7-(2,3-dichloro-6-hydroxyphenyl)-2-[(3R)-4,4-difluoro-3-hydroxybutanoyl]-hexahydropyrrolo [1,2-a]pyrazin-4-one] | – | – | > 6.00 | < 4.52 |
| CCC[C@H](CO)C(=O)N1CC(=O)N2C[C@@H](c3c(O)ccc(Cl)c3Cl)C[C@H]2C1 [Compound 77, (7R,8aS)-7-(2,3-dichloro-6-hydroxyphenyl)-2-[(2R)-2-(hydroxymethyl)pentanoyl]-hexahydropyrrolo [1,2-a]pyrazin-4-one] | – | – | > 6.00 | < 4.52 |
| O=C(C[C@@H](O)CO)N1CC(=O)N2C[C@@H](c3c(O)ccc(Cl)c3Cl)C[C@H]2C1 [Compound 78, (7R,8aS)-7-(2,3-dichloro-6-hydroxyphenyl)-2-[(3R)-3,4-dihydroxybutanoyl]-hexahydropyrrolo [1,2-a]pyrazin-4-one] | – | – | > 6.00 | < 4.52 |
| C[C@@H]1NC[C@@H]2C[C@H](c3c(O)ccc(Cl)c3Cl)CN2C1=O [Compound 85, (3S,7R,8aS)-7-(2,3-dichloro-6-hydroxyphenyl)-3-methyl-hexahydro-1H-pyrrolo[1,2-a]pyrazin-4-one] | – | – | > 6.00 | > 4.52 |
